According to US20030166583A1, “Dermal cytochrome P450 1A inhibitors and enhancers” (priority 2002, published 2003):
Entries after “also recorded” stand apart in the source; their conditions may differ.

Each compound was assayed on dermal CYP1A (assay: in vitro). Conditions: not given.
Text: (§1) Nude mice were sacrificed by decapitation.
(§2) The precipitate containing the microsomes was obtained.

SMILES | dose dependence of the inhibitory effect on dermal CYP1A
COc1ccc([C@@H]2CC(=O)c3c(O)cc(O)cc3O2)cc1O [Hesperetin] | the higher the hesperetin concentration, the lower the inhibitory effect

Same assay, conditions: at certain concentration (1, 10 or 100 μM)

SMILES | inhibitory effect on dermal CYP1A activity, in words
C=C(C)C1CC=C(C)CC1 (single isomer, unassigned; (+)) [(+)-Limonene] | inhibition effects
Oc1cc(O)c2c(c1)O[C@H](c1ccc(O)c(O)c1)[C@@H](O)C2 [(+)-Catechin] | inhibition effects
Oc1cc(O)c2c(c1)O[C@@H](c1ccc(O)c(O)c1)[C@@H](O)C2 [(+)-Epicatechin] | inhibition effects
Oc1cc(O)c2c(c1)O[C@H](c1ccc(O)c(O)c1)[C@H](O)C2 [(−)-Epicatechin] | inhibition effects

Same assay, conditions: at certain concentrations (1, 10 or 100 μM)

SMILES | enhancing effect on dermal CYP1A activity, in words
C=C(C)C1CC=C(C)CC1 (single isomer, unassigned; (+)) [(+)-Limonene] | enhancing effects
Oc1cc(O)c2c(c1)O[C@H](c1ccc(O)c(O)c1)[C@@H](O)C2 [(+)-Catechin] | enhancing effects
Oc1cc(O)c2c(c1)O[C@@H](c1ccc(O)c(O)c1)[C@@H](O)C2 [(+)-Epicatechin] | enhancing effects
Oc1cc(O)c2c(c1)O[C@H](c1ccc(O)c(O)c1)[C@H](O)C2 [(−)-Epicatechin] | enhancing effects; also recorded: strongest enhancing effect

Same assay, conditions: compound 1 μM

SMILES | inhibition of dermal CYP1A activity
C=C(C)C1CC=C(C)CC1 (single isomer, unassigned; (+)) [(+)-Limonene] | about 51%
Oc1cc(O)c2c(c1)O[C@H](c1ccc(O)c(O)c1)[C@@H](O)C2 [(+)-Catechin] | about 22%
Oc1cc(O)c2c(c1)O[C@@H](c1ccc(O)c(O)c1)[C@@H](O)C2 [(+)-Epicatechin] | about 34%

Same assay, conditions: compound 1 μM; skin microsomes; mean of at least 3 repeats

SMILES | dermal CYP1A activity (% of control group) [%]
Oc1cc(O)c2c(c1)O[C@H](c1ccc(O)c(O)c1)[C@@H](O)C2 [(+)-Catechin] | 78.10
Oc1cc(O)c2c(c1)O[C@@H](c1ccc(O)c(O)c1)[C@@H](O)C2 [(+)-Epicatechin] | 65.55
Oc1cc(O)c2c(c1)O[C@H](c1ccc(O)c(O)c1)[C@H](O)C2 [(−)-Epicatechin] | 85.69

Same assay, conditions: compound 10 μM

SMILES | enhancement of dermal CYP1A activity [%]
Oc1cc(O)c2c(c1)O[C@H](c1ccc(O)c(O)c1)[C@H](O)C2 [(−)-Epicatechin] | 22

Same assay, conditions: compound 10 μM; skin microsomes; mean of at least 3 repeats

SMILES | dermal CYP1A activity (% of control group) [%]
Oc1cc(O)c2c(c1)O[C@H](c1ccc(O)c(O)c1)[C@@H](O)C2 [(+)-Catechin] | 91.97
Oc1cc(O)c2c(c1)O[C@@H](c1ccc(O)c(O)c1)[C@@H](O)C2 [(+)-Epicatechin] | 86.15
Oc1cc(O)c2c(c1)O[C@H](c1ccc(O)c(O)c1)[C@H](O)C2 [(−)-Epicatechin] | 121.77

Same assay, conditions: compound 100 μM

SMILES | enhancement of dermal CYP1A activity
Oc1cc(O)c2c(c1)O[C@H](c1ccc(O)c(O)c1)[C@H](O)C2 [(−)-Epicatechin] | about 30%

Same assay, conditions: compound 100 μM; skin microsomes; mean of at least 3 repeats

SMILES | dermal CYP1A activity (% of control group) [%]
Oc1cc(O)c2c(c1)O[C@H](c1ccc(O)c(O)c1)[C@@H](O)C2 [(+)-Catechin] | 99.99
Oc1cc(O)c2c(c1)O[C@@H](c1ccc(O)c(O)c1)[C@@H](O)C2 [(+)-Epicatechin] | 105.09
Oc1cc(O)c2c(c1)O[C@H](c1ccc(O)c(O)c1)[C@H](O)C2 [(−)-Epicatechin] | 129.82

Same assay, conditions: concentration between about 10 μM and about 100 μM

SMILES | enhancement of dermal microsomal CYP1A activity
Oc1cc(O)c2c(c1)O[C@H](c1ccc(O)c(O)c1)[C@H](O)C2 [(−)-Epicatechin] | at least 20%

Same assay, conditions: nude, mouse, 10 min, 1 µM, pH 7.8

SMILES | dermal CYP1A activity (% of control group) [%]
COc1ccc([C@@H]2CC(=O)c3c(O)cc(O)cc3O2)cc1O [Hesperetin] | 6.89

These compounds were tested on CYP1A (assay: in vitro). Conditions: nude, mouse, pH 7.8, dermal CYP1A activity (% of control group).
Text: as §1, §2

SMILES | activity at 10 min, 1 µM [%] | activity at 10 min, 10 µM [%] | activity at 10 min, 100 µM [%]
COc1ccc([C@@H]2CC(=O)c3c(O)cc(O)cc3O2)cc1O [Hesperetin] | ~7 | 24.6 | 66

Same assay, conditions: nude, mouse, pH 7.8, inhibition of dermal CYP1A activity

SMILES | inhibition at 10 min, 1 µM [%]
COc1ccc([C@@H]2CC(=O)c3c(O)cc(O)cc3O2)cc1O [Hesperetin] | > 90

Each compound was assayed on liver CYP1A (assay: Liver microsomal CYP1A enzymatic activity, inhibition or enhancement). Conditions: at certain concentration (1, 10 or 100 μM).

SMILES | enhancing effect on liver CYP1A activity, in words | inhibitory effect on liver CYP1A activity, in words
Oc1cc(O)c2c(c1)O[C@H](c1ccc(O)c(O)c1)[C@@H](O)C2 [(+)-Catechin] | enhancing effect | inhibitory effects
Oc1cc(O)c2c(c1)O[C@@H](c1ccc(O)c(O)c1)[C@@H](O)C2 [(+)-Epicatechin] | enhancing effect | 
Oc1cc(O)c2c(c1)O[C@H](c1ccc(O)c(O)c1)[C@H](O)C2 [(−)-Epicatechin] | enhancing effect; also recorded: most enhancing effect | 

Same assay, conditions: compound 1 μM

SMILES | enhancing effect on liver CYP1A activity
Oc1cc(O)c2c(c1)O[C@H](c1ccc(O)c(O)c1)[C@H](O)C2 [(−)-Epicatechin] | about 34%

Same assay, conditions: compound 1 μM; liver microsomes

SMILES | liver CYP1A activity (% of control group) [%]
Oc1cc(O)c2c(c1)O[C@H](c1ccc(O)c(O)c1)[C@@H](O)C2 [(+)-Catechin] | 90.00
Oc1cc(O)c2c(c1)O[C@@H](c1ccc(O)c(O)c1)[C@@H](O)C2 [(+)-Epicatechin] | 124.29
Oc1cc(O)c2c(c1)O[C@H](c1ccc(O)c(O)c1)[C@H](O)C2 [(−)-Epicatechin] | 133.54

Same assay, conditions: compound 10 μM; liver microsomes

SMILES | liver CYP1A activity (% of control group) [%]
Oc1cc(O)c2c(c1)O[C@H](c1ccc(O)c(O)c1)[C@@H](O)C2 [(+)-Catechin] | 120.23
Oc1cc(O)c2c(c1)O[C@@H](c1ccc(O)c(O)c1)[C@@H](O)C2 [(+)-Epicatechin] | 129.86
Oc1cc(O)c2c(c1)O[C@H](c1ccc(O)c(O)c1)[C@H](O)C2 [(−)-Epicatechin] | 139.91

Same assay, conditions: compound 100 μM; liver microsomes

SMILES | liver CYP1A activity (% of control group) [%]
Oc1cc(O)c2c(c1)O[C@H](c1ccc(O)c(O)c1)[C@@H](O)C2 [(+)-Catechin] | 116.48
Oc1cc(O)c2c(c1)O[C@@H](c1ccc(O)c(O)c1)[C@@H](O)C2 [(+)-Epicatechin] | 130.95
Oc1cc(O)c2c(c1)O[C@H](c1ccc(O)c(O)c1)[C@H](O)C2 [(−)-Epicatechin] | 147.44
